From article PMC9192788, “Identification of a D-galacturonate reductase efficiently using NADH as a cofactor” (Biotechnology Reports, 2022)

Assays:
[1] = test system: T1, Gaa1 (E. gracilis D-galacturonate reductase); experiment: reverse reaction with NADP; type: biochemical, Euglena gracilis; details: 1 mM NADP, 0.1 M Na-phosphate pH 7, 30°C
T1 construct: full-length 420 aa, C-terminal 6xHis tag kept, synthetic codon-optimized gene expressed in S. cerevisiae, IMAC purified, ~45 kDa; primer-encoded N-terminus MVDVLMVGT
Source text: reverse reaction with NADP on Gaa1 (E. gracilis D-galacturonate reductase)

[2] = test system: T1, Gaa1 (E. gracilis D-galacturonate reductase); experiment: NAD(P)H oxidation, absorbance at […] nm; type: biochemical, Euglena gracilis; details: 1 mM NADPH, 0.1 M Na-phosphate pH 7, 30°C

Km [1] | Km [2] | SMILES
700 µM |  | O=C(O)[C@@H](O)[C@H](O)[C@H](O)[C@@H](O)CO [L-galA, L-galactonate]
 | 300 µM | O=C(O)[C@H]1OC(O)[C@H](O)[C@@H](O)[C@H]1O (stereo partly drawn) [GalUA, D-galacturonate]
